Results on two compounds are retold here after patent US12546780B2, “Method for identifying ubiquitin and ubiquitin-like enzyme activities” (CENTRE NATIONAL DE LA RECHERCHE SCIENTIFIQUE, priority 2019, dated 2026).

In experiment [1] the test system is UBC12 protein NEDDylation. The experiment in a line: Bead method: NEDD8 level on UBC12 beads with HL60 cell extracts. The class given is cell-based. As to conditions: HL60 cells, 1 μM, 6 h. Here is the method: HL60 cells were first treated with 1 μM of MLN4924, DMSO, or only with the culture medium for 6 h. Beads supporting UBC12, (NEDDylation E2 enzyme, which was previously reported to be modified by NEDD8) were contacted with said cell extracts, and NEDD8 level was assessed.
Cells grown at a 5-8.10^5/mL density were spun down (300 g) at 4° C. for 5 min and washed once with PBS. After pellet resuspension in 1 mL of PBS, they were centrifuged again (16,000 g) at 4° C. for 5 min. Pellets were resuspended and incubated at 4° C. for 30 min in a hypotonic buffer (20 mM HEPES pH 7.5, 1.5 mM MgCl2, 5 mM KCl, 1 mM DTT and 1 mg/L of aprotinine, leupeptin and pepstatin) in a volume of 25 μL per 2.10^6 cells. Cell lysis was achieved through 4 freezing/thawing cycles using liquid nitrogen and DNA was sheared owing to 10 passages through a 20-1/2 G needle. Extracts were finally centrifuged twice (16000 g) at 4° C. for 20 min and supernatants were aliquoted, flash-frozen and kept at −80° C. until use. […]
(§1) SUMO-1-, SUMO-2-, NEDD8 and Ubiquitin vinyl sulfones (0.5 μM each) were added to cellular extracts (10 μL), which were incubated at 4° C. for 15 min. […] They were then resuspended in 200 μL PBS and flow-cytometry-analysed using the LSR Fortessa device from BD Biosciences. Results were analysed using the FlowJow software.

Experiment [2] has as its system SUMOylation activity on ZMYM5 protein. The experiment in a line: Bead method: SUMOylation activity on ZMYM5 with HL60 cell extracts. The experiment is classed as cell-based. As to conditions: HL60 cells, 0-500 nM, 6 h; ZMYM5 beads. The method, then: ZMYM5 was used as a marker of SUMOylation, OTUD6B as a marker of NEDDylation, and TMEM92, BEAN and WBP2 as a marker of ubiquitinylation. […]
(§2) Cells grown at a 5-8.10^5/mL density were spun down (300 g) at 4° C. for 5 min and washed once with PBS. After pellet resuspension in 1 mL of PBS, they were centrifuged again (16,000 g) at 4° C. for 5 min. Pellets were resuspended and incubated at 4° C. for 30 min in a hypotonic buffer (20 mM HEPES pH 7.5, 1.5 mM MgCl2, 5 mM KCl, 1 mM DTT and 1 mg/L of aprotinine, leupeptin and pepstatin) in a volume of 25 μL per 2.10^6 cells. Cell lysis was achieved through 4 freezing/thawing cycles using liquid nitrogen and DNA was sheared owing to 10 passages through a 20-1/2 G needle. Extracts were finally centrifuged twice (16000 g) at 4° C. for 20 min and supernatants were aliquoted, flash-frozen and kept at −80° C. until use.
2.10^5 magnetic MagPlex XMap beads (low concentration) from Luminex were transferred to a low binding microtube (Eppendorf) and washed using 500 mM NaCl. […]
as §1

The subject of experiment [3] is ubiquitination activity (TMEM92, BEAN1, WBP2). The experiment in a line: Bead method: ubiquitination activity on TMEM92, BEAN1 or WBP2 beads with HL60 cell extracts. The experiment is classed as cell-based. As to conditions: HL60 cells, 6 h. Here is the method:
Cells extracts were prepared and contacted with beads coated with either TMEM92, BEAN1 or WBP2 proteins.
as §2
2.10^5 magnetic MagPlex XMap beads (low concentration) from Luminex were transferred to a low binding microtube (Eppendorf) and washed using 500 mM NaCl. They were then resuspended in 50 μL of 50 mM MES pH 6.1 and incubated in the presence of 5 mg/mL 1-ethyl-3-(3-dimethylaminopropyl) carbodiimide hydrochloride (EDC, Pierce) and 5 mg/mL Sulfo-NHS (Pierce) at room temperature for 20 min. Beads were then washed in PBS containing 500 mM NaCl and incubated with 7 μg of recombinant protein to be coupled in 100 μL PBS at room temperature for 2 hrs. They were then washed twice with PBS containing 0.1% BSA, 0.02% Tween 20, 0.05% sodium azide and 500 mM NaCland stored at 4° C. in PBS containing 0.1% BSA, 0.02% Tween-20, 0.05% sodium azide.
SUMO-1-, SUMO-2-, NEDD8 and Ubiquitin vinyl sulfones (0.5 μM each) were added to cellular extracts (10 μL), which were incubated at 4° C. for 15 min. Control extracts were also incubated with 50 mM NEM. […] They were then resuspended in 200 μL PBS and flow-cytometry-analysed using the LSR Fortessa device from BD Biosciences. Results were analysed using the FlowJow software.

The next experiment concerns NEDDylation of OTUD6B. The experiment in a line: Bead method: NEDD8 addition on OTUD6B beads with HL60 cell extracts. The experiment is classed as cell-based. Conditions: HL60 cells, 0-500 nM, 6 h. The method, then: FIG. 8 represents graphs evaluating Ubiquitin addition on beads coated with TMEM92 (1), BEAN1 (2), WBP2 (3) proteins, SUMO1 addition on beads coated with ZMYM5 (4) or NEDD8 addition on beads coated with OTUD6B (5). […] As control, cell extracts treated N-ethylmaleimide (NEM) are used (A).
ZMYM5 was used as a marker of SUMOylation, OTUD6B as a marker of NEDDylation, and TMEM92, BEAN and WBP2 as a marker of ubiquitinylation.
Cells grown at a 5-8.10^5/mL density were spun down (300 g) at 4° C. for 5 min and washed once with PBS. After pellet resuspension in 1 mL of PBS, they were centrifuged again (16,000 g) at 4° C. for 5 min. Pellets were resuspended and incubated at 4° C. for 30 min in a hypotonic buffer (20 mM HEPES pH 7.5, 1.5 mM MgCl2, 5 mM KCl, 1 mM DTT and 1 mg/L of aprotinine, leupeptin and pepstatin) in a volume of 25 μL per 2.10^6 cells. Cell lysis was achieved through 4 freezing/thawing cycles using liquid nitrogen and DNA was sheared owing to 10 passages through a 20-1/2 G needle. […]
as §1

The next experiment concerns SUMOylation activity. Conditions: read-out: in vitro IC50 (SUMOylation); cited from earlier work.
For experiment [4], the system named is NEDDylation (OTUD6B protein). Conditions: read-out: in vitro IC50 (NEDDylation) on OTUD6B protein; cited from earlier work.

`NS(=O)(=O)OC[C@@H]1C[C@@H](n2ccc3c(N[C@H]4CCc5ccccc54)ncnc32)CC1O` (some centres unmarked) [MLN4924]: the “UBC12 protein NEDDylation” value in experiment [1] is recorded as “decrease”.
As for `NS(=O)(=O)OC[C@H]1C[C@@H](Nc2ccnc3cc(-c4cccc(SC(F)(F)F)c4)nn23)[C@H](O)[C@@H]1O` [MLN7243], the “effect on SUMOylation activity” value in experiment [2] was “affects SUMOylation activity, but with large amounts of inhibitor”. The ubiquitination activity inhibited entry in experiment [3] (10 nM or more) was “more than 50%”. In addition, the TMEM92 ubiquitination inhibition result in experiment [3] (500 nM, TMEM92 beads) is “maximal”. Also, the “WBP2 and BEAN1 ubiquitination remaining” value in experiment [3] (500 nM, WBP2 and BEAN1 beads) is reported as “residual levels”. Also, in the experiment with NEDDylation of OTUD6B, the “effect on NEDDylation (OTUD6B beads)” value is given as “a decrease slightly different”. The IC50 (as a rule, the concentration that inhibits the measured activity by half) with SUMOylation activity was 850 nM; in experiment [4] it was 28 nM.
